System: EO771 cells
Test: Mouse model of breast cancer (EO771 cells in mammary fat pads)
Type: in vivo
Details: female C57Bl/6 mice, i.p. 10 mg/kg every other day for 3 weeks
Excerpt: In a mouse model of breast cancer, 8-week-old female C57Bl/6 mice were inoculated with EO771 cells in the 4th pair of mammary fat pads. […] Mice were sacrificed 24 days after cell inoculation.

weights of the heart, liver, lungs, kidney, brain, and lymph nodes: did not affect
Compound: O=C(NCCCCC1CN2C(c3ccc4ccccc4c3)=CSC2=N1)Nc1ccccc1 (centres unmarked) [USCYL01]
body weight: did not affect
